Results: PubChem BioAssay (NCI)
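Assay format: 96-well plates, 48-hour exposure. TGI marks complete inhibition of growth.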

Tests used:
Experiment in all cases: DTP human tumour cell line panel, 48 h
[1] = test system: MCF7 breast
[2] = test system: ACHN renal
[3] = test system: A549 NSCLC
[4] = test system: SNB-19 CNS
[5] = test system: OVCAR-3 ovarian
[6] = test system: SW-620 colon
[7] = test system: RPMI-8226 leukemia
[8] = test system: LOX IMVI melanoma
[9] = test system: COLO 205 colon
[10] = test system: HS 578T breast
[11] = test system: NCI-H522 lung
[12] = test system: K-562 leukemia
[13] = test system: SF-295 CNS
[14] = test system: U251 CNS
[15] = test system: HCT-15 colon
[16] = test system: SK-MEL-5 melanoma
[17] = test system: NCI-H226 lung
[18] = test system: DU-145 prostate
[19] = test system: HL-60(TB) leukemia
[20] = test system: NCI/ADR-RES ovarian
[21] = test system: EKVX NSCLC
[22] = test system: MDA-MB-435
[23] = test system: HOP-62 NSCLC
[24] = test system: RXF 393 renal
[25] = test system: MOLT-4 leukemia
[26] = test system: A498 renal
[27] = test system: HOP-92 NSCLC
[28] = test system: SF-268 CNS
[29] = test system: HCC-2998 colon
[30] = test system: OVCAR-8 ovarian
[31] = test system: IGROV1 ovarian
[32] = test system: BT-549 breast
[33] = test system: NCI-H460 lung
[34] = test system: UACC-257 melanoma
[35] = test system: HT29 colon
[36] = test system: NCI-H23 lung
[37] = test system: CCRF-CEM leukemia
[38] = test system: HCT-116 colon
[39] = test system: T-47D breast
[40] = test system: UO-31 renal
[41] = test system: UACC-62 melanoma
[42] = test system: SNB-75 CNS
[43] = test system: SR leukemia
[44] = test system: OVCAR-4 ovarian
[45] = test system: SK-MEL-28 melanoma
[46] = test system: KM12 colon
[47] = test system: 786-0 renal
[48] = test system: SF-539 CNS
[49] = test system: TK-10 renal
[50] = test system: PC-3 prostate
[51] = test system: MALME-3M melanoma

Cc1cc2cc3c(Cl)c(CCCl)c(C)nc3cc2c(Cl)c1CCCl
TGI [1]: 56.7 µM
TGI [2]: 75.5 µM
TGI [3]: 57.2 µM
TGI [4]: 85.9 µM
TGI [5]: 34.4 µM
TGI [6]: 76.8 µM
TGI [7]: 36.5 µM
TGI [8]: 29.5 µM
TGI [9]: 36.1 µM
TGI [10]: 30.6 µM
TGI [11]: 37.7 µM
TGI [12]: 43.3 µM
TGI [13]: 35.2 µM
TGI [14]: 60 µM
TGI [15]: > 100 µM
TGI [16]: 26.6 µM
TGI [17]: 20.5 µM
TGI [18]: 80.3 µM
TGI [19]: 27.3 µM
TGI [20]: 61.8 µM
TGI [21]: 42.3 µM
TGI [22]: 30.8 µM
TGI [23]: 27.8 µM
TGI [24]: 17.5 µM
TGI [25]: 44.7 µM
TGI [26]: 48.4 µM
TGI [27]: 35.4 µM
TGI [28]: 30.9 µM
TGI [29]: 39.7 µM
TGI [30]: 94.5 µM
TGI [31]: > 100 µM
TGI [32]: 47.7 µM
TGI [33]: 34.2 µM
TGI [34]: 34.8 µM
TGI [35]: > 100 µM
TGI [36]: 63.6 µM
TGI [37]: 48.9 µM
TGI [38]: 31.8 µM
TGI [39]: 69.8 µM
TGI [40]: 50.9 µM
TGI [41]: 34.4 µM
TGI [42]: > 100 µM
TGI [43]: 32.9 µM
TGI [44]: 66.3 µM
TGI [45]: 35.1 µM
TGI [46]: 46.4 µM
TGI [47]: 78.6 µM
TGI [48]: 30 µM
TGI [49]: > 100 µM
TGI [50]: 39.6 µM
TGI [51]: 45.7 µM
